Data: patent publication US9359311B2, “Substituted aromatic oligomers” (NEUROSCIOS GMBH, priority 2011, dated 2016)
Where “and” joins values, the source holds several entries; their conditions need not be identical. Equal entries are not always repeated.

Key:
[1] = biological target: T1, biotinylated Aβ1-42 (Homo sapiens, UniProt P05067); test: Inhibition of Abeta oligomerisation (biotinylated Aβ1-42, neutravidin plate, streptavidin-HRP); assay type: biochemical; conditions: inhibition of Aβ1-42 aggregation, approximately 12 nM Aβ1-42, PBS pH 7.4, 2% DMSO, 30 min RT
T1 construct: To assure monomerisation of biotinylated Aβ1-42 (Anaspec #23523-0.5) the peptide was thoroughly monomerised; purchased Anaspec 23523-0.5
T1 sequence (P05067 672-713 limits assumed): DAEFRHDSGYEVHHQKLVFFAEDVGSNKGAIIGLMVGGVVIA

[2] = test system: primary chicken neurons; test: Inhibition of Abeta 1-42 toxicity on primary chicken neurons (MTT); assay type: cell-based; parameters: key: No: no effect; +: minor positive effect on cell viability in the presence of aggregated Aβ 1-42; ++: medium positive effect on cell viability in the presence of aggregated Aβ 1-42; +++: strong positive effect on cell viability in the presence of aggregated Aβ 1-42
Experimental: One-day-old fertilized eggs are stored under appropriate conditions until start of breeding. On embryonic day 0 eggs are transferred to the breeding incubator and under turning, kept at 37.8° C. and 55% humidity until embryonic day eight. Neurons are prepared as follows: In short, embryos are transferred to a plastic dish, and decapitated. Both brain hemispheres are removed, collected and any loose tissue removed. Hemispheres are mechanically dissociated and 4.8×10^4 cells per well (96-well plates) are seeded in a volume of 160 μl.
Aβ1-42 (MW 4514.1) was obtained from American Peptide Company as a lyophilized powder. A stock solution of 340 μM Aβ1-42 was prepared in 50 mM Tris-Buffer, 150 mM NaCl, pH7.6 according to the manufacturer's instructions. After sonication, the stock solution is diluted 1:1 with the test compounds to obtain a concentration of 170, 17 and 1.7 μM. After aggregation at 4° C. for 48 h, the solutions are sonicated again prior to application to the cells. The final concentration of Aβ1-42 applied to the primary chicken neurons is 10 μM.
Aβ1-42 aggregated together with compound for 48 hrs was applied to chicken neurons at DIV4 (days in vitro) and analyzed at DIV10 (144 hrs) and all others were applied to chicken neurons at DIV6 and analysed at DIV10 (96 hrs).
Viability of cultures is determined by the MTT assay. The MTT assay allows for the measurement of the mitochondrial dehydrogenase activity which reduces yellow MTT to dark blue formazan crystals. Since this reaction is catalyzed in living cells only this assay is used for the determination of cell viability. MTT solution is added to each well in a final concentration of 0.5 mg/ml. After 2 hours the MTT containing medium is aspired. Cells are lysed in 3% SDS and the formazan crystals are dissolved in isopropanol/HCl. Optical density is measured with a plate-reader at wavelength 570 nm. Cell survival rate is expressed as a percentage of optical density (OD) relative to control cells not treated with Aβ or compound.

[3] = Conc. 1 μM, 10 μM Aβ1-42 aggregated together with compound for 48 h
[4] = Conc. 10 μM, 10 μM Aβ1-42 aggregated together with compound for 48 h
[5] = Conc. 0.1 μM, 10 μM Aβ1-42 aggregated together with compound for 48 h

SMILES	IC50 [1]	further results
Nc1c(/N=N/c2ccc(-c3ccc(/N=N/c4cc(S(=O)(=O)O)c5ccccc5c4N)cc3)cc2)cc(S(=O)(=O)O)c2ccccc12 [Congo Red, reference compound]	1.58 µM	Rescue of Abeta toxicity (MTT) ([2]; Conc. 5 μM, 10 μM Aβ1-42): ++
O=C(O)Cc1cc(-c2ccc(C(=O)O)cc2)sc1-c1ccc(-c2sc(-c3ccc(C(=O)O)cc3)cc2CC(=O)O)s1 [Example 9, 4-[4-(Carboxymethyl)-5-{5-[3-(carboxymethyl)-5-(4-carboxyphenyl)thiophen-2-yl]thiophen-2-yl}thiophen-2-yl]benzoic acid]	15.8 µM	Rescue of Abeta toxicity (MTT) [2, 3]: ++; Rescue of Abeta toxicity (MTT) [2, 4]: +++
O=C(O)Cc1ccccc1-c1ccc(-c2cc(CC(=O)O)c(-c3ccc(-c4sc(-c5ccc(-c6ccccc6CC(=O)O)s5)cc4CC(=O)O)s3)s2)s1 [Example 56, 2-(2-{5-[3-(Carboxymethyl)-5-{5-[2-(carboxymethyl)phenyl]thiophen-2-yl}thiophen-2-yl]thiophen-2-yl}-5-{5-[2-(carboxymethyl)phenyl]thiophen-2-yl}thiophen-3-yl)acetic acid]	3.16 µM	Rescue of Abeta toxicity (MTT) [2, 5]: +; Rescue of Abeta toxicity (MTT) [2, 3]: +++; Rescue of Abeta toxicity (MTT) [2, 4]: +++
O=C(O)Cc1cc(-c2ccccc2)sc1-c1ccc(-c2sc(-c3ccccc3)cc2CC(=O)O)s1 [Example 21, 2-(2-{5-[3-(Carboxymethyl)-5-phenylthiophen-2-yl]thiophen-2-yl}-5-phenylthiophen-3-yl)acetic acid]	2.51 µM	Rescue of Abeta toxicity (MTT) [2, 5]: no; Rescue of Abeta toxicity (MTT) [2, 3]: ++; Rescue of Abeta toxicity (MTT) [2, 4]: no
O=C(O)Cc1cc(C(=O)c2cccs2)sc1-c1ccc(-c2sc(C(=O)c3cccs3)cc2CC(=O)O)s1 [Example 93, 2-(2-{5-[3-(carboxymethyl)-5-(thiophene-2-carbonyl)thiophen-2-yl]thiophen-2-yl}-5-(thiophene-2-carbonyl)thiophen-3-yl)acetic acid]		Rescue of Abeta toxicity (MTT) [2, 5]: +; Rescue of Abeta toxicity (MTT) [2, 3]: ++; Rescue of Abeta toxicity (MTT) [2, 4]: +++
O=C(O)Cc1cc(-c2cccnc2)sc1-c1ccc(-c2sc(-c3cccnc3)cc2CC(=O)O)s1 [Example 15, 2-(2-{5-[3-(Carboxymethyl)-5-(pyridin-3-yl)thiophen-2-yl]thiophen-2-yl}-5-(pyridin-3-yl)thiophen-3-yl)acetic acid]	50.1 µM	
CS(=O)(=O)c1ccc(-c2cc(CCC(=O)O)c(-c3ccc(-c4sc(-c5ccc(S(C)(=O)=O)cc5)cc4CCC(=O)O)s3)s2)cc1 [Example 51, 3-(2-{5-[3-(2-Carboxyethyl)-5-(4-methanesulfonylphenyl)thiophen-2-yl]thiophen-2-yl}-5-(4-methanesulfonylphenyl)thiophen-3-yl)propanoic acid]	1.58 µM and 7.94 µM	
CC(=O)NCCc1cc(-c2ccc(C(=O)O)s2)sc1-c1ccc(-c2sc(-c3ccc(C(=O)O)s3)cc2CCNC(C)=O)s1 [Example 7, 5-(5-{5-[5-(5-Carboxythiophen-2-yl)-3-(2-acetamidoethyl)thiophen-2-yl]thiophen-2-yl}-4-(2-acetamidoethyl)thiophen-2-yl)thiophene-2-carboxylic acid]	3.98 µM	
N#Cc1ccc(-c2cc(CC(=O)O)c(-c3ccc(-c4sc(-c5ccc(C#N)s5)cc4CC(=O)O)s3)s2)s1 [Example 85, 2-(2-{5-[3-(Carboxymethyl)-5-(5-cyanothiophen-2-yl)thiophen-2-yl]thiophen-2-yl}-5-(5-cyanothiophen-2-yl)thiophen-3-yl)acetic acid]	3.98 µM	
CNS(=O)(=O)c1ccc(-c2cc(CC(=O)O)c(-c3ccc(-c4sc(-c5ccc(S(=O)(=O)NC)cc5)cc4CC(=O)O)s3)s2)cc1 [Example 23, 2-(2-{5-[3-(Carboxymethyl)-5-[4-(methylsulfamoyl)phenyl]thiophen-2-yl]thiophen-2-yl}-5-[4-(methylsulfamoyl)phenyl]thiophen-3-yl)acetic acid]	3.16 µM	
O=C(O)Cc1cc(-c2ccc(C(=O)N3CCCC3)c(F)c2)sc1-c1ccc(-c2sc(-c3ccc(C(=O)N4CCCC4)c(F)c3)cc2CC(=O)O)s1 [Example 78, 2-(2-{5-[3-(Carboxymethyl)-5-[3-fluoro-4-(pyrrolidine-1-carbonyl)phenyl]thiophen-2-yl]thiophen-2-yl}-5-[3-fluoro-4-(pyrrolidine-1-carbonyl)phenyl]thiophen-3-yl)acetic acid]	5.01 µM	
COC(=O)Cc1cc(-c2ccc(C(=O)O)s2)sc1-c1ccc(-c2sc(-c3ccc(C(=O)O)s3)cc2CC(=O)OC)s1 [Example 69, 5-(5-{5-[5-(5-Carboxythiophen-2-yl)-3-(2-methoxy-2-oxoethyl)thiophen-2-yl]thiophen-2-yl}-4-(2-methoxy-2-oxoethyl)thiophen-2-yl)thiophene-2-carboxylic acid]	2.51 µM	
O=C(O)Cc1cc(C(=O)c2ccccc2)sc1-c1ccc(-c2sc(C(=O)c3ccccc3)cc2CC(=O)O)s1 [Example 95, 2-(5-benzoyl-2-{5-[5-benzoyl-3-(carboxymethyl)thiophen-2-yl]thiophen-2-yl}thiophen-3-yl)acetic acid]		Rescue of Abeta toxicity (MTT) [2, 5]: no; Rescue of Abeta toxicity (MTT) [2, 3]: no; Rescue of Abeta toxicity (MTT) [2, 4]: +++
O=C(O)Cc1ccsc1-c1ccc(-c2sc(-c3ccc(-c4cc(CC(=O)O)c(-c5ccc(-c6sccc6CC(=O)O)cc5)s4)cc3)cc2CC(=O)O)cc1 [Example 38, 2-(2-{4-[3-(Carboxymethyl)-5-{4-[4-(carboxymethyl)-5-{4-[3-(carboxymethyl)thiophen-2-yl]phenyl}thiophen-2-yl]phenyl}thiophen-2-yl]phenyl}thiophen-3-yl)acetic acid]	1.58 µM	
NCCc1ccsc1-c1ccc(-c2sccc2CCN)s1 [Example 8, 2-(2-{5-[3-(2-Aminoethyl)thiophen-2-yl]thiophen-2-yl}thiophen-3-yl)ethan-1-amine]	15.8 µM	
O=C(O)Cc1cc(-c2cccc(OC(F)(F)F)c2)sc1-c1ccc(-c2sc(-c3cccc(OC(F)(F)F)c3)cc2CC(=O)O)s1 [Example 87, 2-(2-{5-[3-(Carboxymethyl)-5-[3-(trifluoromethoxy)phenyl]thiophen-2-yl]thiophen-2-yl}-5-[3-(trifluoromethoxy)phenyl]thiophen-3-yl)acetic acid]	1 µM	
O=C(O)Cc1cc(-c2ccc(-c3cccc(C(=O)O)c3)s2)sc1-c1ccc(-c2sc(-c3ccc(-c4cccc(C(=O)O)c4)s3)cc2CC(=O)O)s1 [Example 20, 3-{5-[4-(Carboxymethyl)-5-{5-[3-(carboxymethyl)-5-[5-(3-carboxyphenyl)thiophen-2-yl]thiophen-2-yl]thiophen-2-yl}thiophen-2-yl]thiophen-2-yl}benzoic acid]	1 µM	
O=C(O)Cc1ccccc1-c1cc(CC(=O)O)c(-c2ccc(-c3sc(-c4ccccc4CC(=O)O)cc3CC(=O)O)s2)s1 [Example 47, 2-(2-{5-[3-(Carboxymethyl)-5-[2-(carboxymethyl)phenyl]thiophen-2-yl]thiophen-2-yl}-5-[2-(carboxymethyl)phenyl]thiophen-3-yl)acetic acid]		Rescue of Abeta toxicity (MTT) [2, 5]: +++; Rescue of Abeta toxicity (MTT) [2, 3]: +++; Rescue of Abeta toxicity (MTT) [2, 4]: +++
CS(=O)(=O)c1ccc(-c2cc(CC(=O)O)c(-c3ccc(-c4sc(-c5ccc(C(=O)O)s5)cc4CC(=O)O)s3)s2)cc1 [Example 75, 5-[4-(Carboxymethyl)-5-{5-[3-(carboxymethyl)-5-(4-methanesulfonylphenyl)thiophen-2-yl]thiophen-2-yl}thiophen-2-yl]thiophene-2-carboxylic acid]	31.6 µM	
O=C(O)Cc1ccsc1-c1ccc(-c2sc(-c3cccc(-c4cc(CC(=O)O)c(-c5ccc(-c6sccc6CC(=O)O)s5)s4)c3)cc2CC(=O)O)s1 [Example 34, 2-(2-{5-[3-(Carboxymethyl)-5-{3-[4-(carboxymethyl)-5-{5-[3-(carboxymethyl)thiophen-2-yl]thiophen-2-yl}thiophen-2-yl]phenyl}thiophen-2-yl]thiophen-2-yl}thiophen-3-yl)acetic acid]	0.794 µM	
O=C(O)Cc1ccc(-c2ccc(-c3ccc(CC(=O)O)s3)s2)s1 [Example 72, 2-(5-{5-[5-(Carboxymethyl)thiophen-2-yl]thiophen-2-yl}thiophen-2-yl)acetic acid]	25.1 µM	
